This passage reports Ki results from patent US20030095958A1, “Inhibitors of bace” (priority 2001, published 2003).

Sequence of BACE (P56817 46-501): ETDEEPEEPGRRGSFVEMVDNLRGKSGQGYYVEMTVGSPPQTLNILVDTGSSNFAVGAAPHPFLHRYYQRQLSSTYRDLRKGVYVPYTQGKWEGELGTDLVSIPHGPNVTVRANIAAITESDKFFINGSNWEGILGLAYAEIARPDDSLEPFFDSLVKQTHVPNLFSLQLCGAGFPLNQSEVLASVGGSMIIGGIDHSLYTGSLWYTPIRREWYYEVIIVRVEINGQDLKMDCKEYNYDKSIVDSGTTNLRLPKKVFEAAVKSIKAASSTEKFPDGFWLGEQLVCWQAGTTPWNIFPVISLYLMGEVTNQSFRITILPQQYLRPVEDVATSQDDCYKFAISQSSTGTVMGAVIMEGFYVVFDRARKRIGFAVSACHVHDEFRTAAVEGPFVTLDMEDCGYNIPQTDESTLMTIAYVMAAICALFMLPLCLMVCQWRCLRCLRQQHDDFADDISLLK

For this experiment, the target named is BACE (Homo sapiens, UniProt P56817). In words: Ki Determination for the Inhibition of BACE (FS-1 peptide fluorescence cleavage assay). The following applies: apparent Ki; 50 nM BACE, 10 μM FS-1 substrate, 0.1M sodium acetate pH 4.5. The format is biochemical. A digest of the protocol:
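Human BACE (50 nM) was preincubated 15 min at room temperature with compound (2% DMSO) in 0.1 M sodium acetate pH 4.5, then 10 μM FS-1 peptide was added. Cleavage was followed by fluorescence (ex 355/em 495 nm), and apparent Ki came from fitting to the integrated competitive tight-binding inhibition equation.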
Consider `c1ccc2cc(COc3ccc4c(c3)c3c(n4Cc4ccc5ccccc5c4)CNCC3)ccc2c1` [Compound 519, 6-(Naphthalen-2-ylmethoxy)-9-naphthalen-2-ylmethyl-2,3,4,9-tetrahydro-1H-b-carboline], for which the Ki is less than 3 µM. The figure for `O=C(c1cccc2ccccc12)n1c2c(c3cc(OCc4ccc(C(F)(F)F)cc4)ccc31)CCNC2` [Compound 506, Naphthalen-1-yl-[6-(4-trifluoromethyl-benzyloxy)-1,2,3,4-tetrahydro-b-carbolin-9-yl]-methanone] is less than 3 µM; for `O=C(Nc1cc(F)c(-c2ccccc2)cc1N1CCNCC1)c1cccc2ccccc12` [Compound 158, Naphthalene-1-carboxylic acid (2-fluoro-5-piperazin-1-yl-biphenyl-4-yl)-amide] it is 3 to 30 µM. On to `O=C(OCc1ccc(COc2ccccc2C(F)(F)F)cc1C1=CCNCC1)c1ccc2ccccc2c1` [Compound 313, Naphthalene-2-carboxylic acid 2-(1,2,3,6-tetrahydro-pyridin-4-yl)-4-(2-trifluoromethyl-phenoxymethyl)-benzyl ester], for which the Ki is less than 3 µM. The figure for `O=C1CCCc2c(OCc3ccc(COc4ccccc4C(F)(F)F)cc3C3=CCNCC3)cccc21` [Compound 331, 5-[2-(1,2,3,6-Tetrahydro-pyridin-4-yl)-4-(2-trifluoromethyl-phenoxymethyl)-benzyloxy]-3,4-dihydro-2H-naphthalen-1-one] is less than 3 µM. In the case of `CN1CC=C(c2cc(CO)c(-c3ccoc3)cc2COc2ccccc2C(F)(F)F)CC1` [Compound 388, [2-Furan-3-yl-5-(1-methyl-1,2,3,6-tetrahydro-pyridin-4-yl)-4-(2-trifluoromethyl-phenoxymethyl)-phenyl]-methanol], the Ki is 3 to 30 µM.

As to `Cc1ccc(-c2ccc(N3CCNCC3)c(NC(=O)c3cccc4ccccc34)c2)cc1` [Compound 124, Naphthalene-1-carboxylic acid (4′-methyl-4-piperazin-1-yl-biphenyl-3-yl)-amide], the Ki was 3 to 30 µM. The figure for `FC(F)(F)c1ccccc1OCc1cc(-c2ccccc2Cl)c(COc2ccccc2C(F)(F)F)cc1C1=CCNCC1` [Compound 348, 4-[2′-Chloro-2,5-bis-(2-trifluoromethyl-phenoxymethyl)-biphenyl-4-yl]-1,2,3,6-tetrahydro-pyridine] is less than 3 µM; for `O=S(=O)(Nc1cc(C(F)(F)F)ccc1N1CCNCC1)c1ccc(-c2ccc(C(F)(F)F)cc2)cc1` [Compound 171, 4′-Trifluoromethyl-biphenyl-4-sulfonic acid (2-piperazin-1-yl-5-trifluoromethyl-phenyl)-amide] it is less than 3 µM; for `O=C(c1ccc2ccccc2c1)n1c2c(c3cc(OCc4ccc(C(F)(F)F)cc4)ccc31)CCNC2` [Compound 536, Naphthalen-2-yl-[6-(4-trifluoromethyl-benzyloxy)-1,2,3,4-tetrahydro-b-carbolin-9-yl]-methanone] it is less than 3 µM.

Take `Oc1cccc(-c2cc(COc3ccccc3C(F)(F)F)c(C3=CCNCC3)cc2COc2ccccc2C(F)(F)F)c1` [Compound 351, 4′-(1,2,3,6-Tetrahydro-pyridin-4-yl)-2′,5′-bis-(2-trifluoromethyl-phenoxymethyl)-biphenyl-3-ol]: the Ki is less than 3 µM.

Regarding `FC(F)(F)c1ccccc1OCc1ccc(COc2ccccc2C(F)(F)F)c(C2=CCNCC2)c1` [Compound 303, 4-[2,5-Bis-(2-trifluoromethyl-phenoxymethyl)-phenyl]-1,2,3,6-tetrahydro-pyridine], the Ki is less than 3 µM. In the case of `Nc1cc2ccccc2cc1NC(=O)c1ccc(COc2ccccc2C(F)(F)F)cc1C1=CCNCC1` [Compound 311, N-(3-Amino-naphthalen-2-yl)-2-(1,2,3,6-tetrahydro-pyridin-4-yl)-4-(2-trifluoromethyl-phenoxymethyl)-benzamide], the Ki was 3 to 30 µM. Regarding `O=C(Nc1cc(Oc2cccc(Cl)c2)ccc1N1CCNCC1)c1cccc2ccccc12` [Compound 139, Naphthalene-1-carboxylic acid [5-(3-chloro-phenoxy)-2-piperazin-1-yl-phenyl]-amide], the Ki was in the range of 3 to 30 µM. The value for `O=C(Nc1cc(C(F)(F)F)c(-c2ccc(C(F)(F)F)cc2)cc1N1CCNCC1)c1cccc2ccccc12` [Compound 170, Naphthalene-1-carboxylic acid (5-piperazin-1-yl-2,4′-bis-trifluoromethyl-biphenyl-4-yl)-amide] was less than 3 µM; that for `O=C(Nc1cc(-c2ccc(C(F)(F)F)cc2)ccc1N1CCNCC1)c1cccc2ccccc12` [Compound 129, Naphthalene-1-carboxylic acid (4-piperazin-1-yl-4′-trifluoromethyl-biphenyl-3-yl)-amide] was less than 3 µM. For `Fc1ccccc1-c1ccc(C2=CCNCC2)c(COc2ccccc2C(F)(F)F)c1` [Compound 372, 4-[2′-Fluoro-3-(2-trifluoromethyl-phenoxymethyl)-biphenyl-4-yl]-1,2,3,6-tetrahydro-pyridine], the Ki is less than 3 µM. The figure for `CC(C)NC(=O)C1CN(c2ccc(-c3ccc(C(F)(F)F)cc3)cc2NCc2ccc3ccccc3c2)CCN1` (stereo not shown) [Compound 193, 4-{3-[(Naphthalen-2-ylmethyl)-amino]-4′-trifluoromethyl-biphenyl-4-yl}-piperazine-2-carboxylic acid isopropylamide] is less than 3 µM. The figure for `FC(F)(F)c1cccc(COC2CNCC(COc3ccc4ccccc4c3)C2c2ccc(-c3ccccc3)cc2)c1` (stereo not shown) [Compound 413] is less than 3 µM. For the compound `O=C(Nc1cc(-c2ccsc2)ccc1N1CCNCC1)c1cccc2ccccc12` [Compound 153, Naphthalene-1-carboxylic acid (2-piperazin-1-yl-5-thiophen-3-yl-phenyl)-amide], the Ki was 3 to 30 µM.

Turning to `O=C(Nc1cc(Br)ccc1N1CCNCC1)c1cccc2ccccc12` [Compound 118, Naphthalene-1-carboxylic acid (5-bromo-2-piperazin-1-yl-phenyl)-amide], the Ki was more than 30 µM.

Regarding `O=C(Nc1cc(-c2cccnc2)ccc1N1CCNCC1)c1cccc2ccccc12` [Compound 110, Naphthalene-1-carboxylic acid (2-piperazin-1-yl-5-pyridin-3-yl-phenyl)-amide], the Ki lay in the range of 3 to 30 µM.

Turning to `COC(=O)c1ccc(-c2cc(COc3ccccc3C(F)(F)F)c(C3=CCNCC3)cc2COc2ccccc2C(F)(F)F)cc1` [Compound 369, 4′-(1,2,3,6-Tetrahydro-pyridin-4-yl)-2′,5′-bis-(2-trifluoromethyl-phenoxymethyl)-biphenyl-4-carboxylic acid methyl ester], the Ki is less than 3 µM. The figure for `O=C(Nc1cc(-c2ccc(S(=O)(=O)NCc3ccccc3)c(F)c2)ccc1N1CCNCC1)c1cccc2ccccc12` [Compound 163, Naphthalene-1-carboxylic acid (4′-benzylsulfamoyl-3′-fluoro-4-piperazin-1-yl-biphenyl-3-yl)-amide] is less than 3 µM; for `O=C(Nc1cc(-c2cc(F)c(S(=O)(=O)NCc3ccccc3)cc2F)ccc1N1CCNCC1)c1cccc2ccccc12` [Compound 164, Naphthalene-1-carboxylic acid (4′-benzylsulfamoyl-2′,5′-difluoro-4-piperazin-1-yl-biphenyl-3-yl)-amide] it is 3 to 30 µM. With `O=C(Nc1cc(C(F)(F)F)cc(Cl)c1N1CCNCC1)c1cccc2ccccc12` [Compound 148, Naphthalene-1-carboxylic acid (3-chloro-2-piperazin-1-yl-5-trifluoromethyl-phenyl)-amide], the Ki is more than 30 µM. Turning to `O=C(Nc1cc(-c2ccc(F)c(Cl)c2)ccc1N1CCNCC1)c1cccc2ccccc12` [Compound 104, Naphthalene-1-carboxylic acid (3′-chloro-4′-fluoro-4-piperazin-1-yl-biphenyl-3-yl)-amide], the Ki was less than 3 µM. The value for `O=C(NCc1ccccc1)C1CN(c2ccc(-c3ccc(C(F)(F)F)cc3)cc2NCc2ccc3ccccc3c2)CCN1` (stereo not shown) [Compound 194, 4-{3-[(Naphthalen-2-ylmethyl)-amino]-4′-trifluoromethyl-biphenyl-4-yl}-piperazine-2-carboxylic acid benzylamide] was less than 3 µM; that for `O=C(OCc1ccccc1-c1cc(COc2ccccc2C(F)(F)F)c(C2=CCNCC2)cc1COc1ccccc1C(F)(F)F)c1ccco1` [Compound 370, Furan-2-carboxylic acid 4′-(1,2,3,6-tetrahydro-pyridin-4-yl)-2′,5′-bis-(2-trifluoromethyl-phenoxymethyl)-biphenyl-2-ylmethyl ester] was less than 3 µM. The value for `O=C(Nc1cc(-c2cccc(Cl)c2Cl)ccc1N1CCNCC1)c1cccc2ccccc12` [Compound 106, Naphthalene-1-carboxylic acid (2′,3′-dichloro-4-piperazin-1-yl-biphenyl-3-yl)-amide] was less than 3 µM; that for `O=[N+]([O-])c1ccc(-c2cc(COc3ccccc3C(F)(F)F)c(C3=CCNCC3)cc2COc2ccccc2C(F)(F)F)cc1` [Compound 354, 4-[4′-Nitro-2,5-bis-(2-trifluoromethyl-phenoxymethyl)-biphenyl-4-yl]-1,2,3,6-tetrahydro-pyridine] was less than 3 µM; that for `O=C(c1cccc2ccccc12)n1c2c(c3cc(OCc4cc(C(F)(F)F)ccc4Cl)ccc31)CCNC2` [Compound 510, [6-(2-Chloro-5-trifluoromethyl-benzyloxy)-1,2,3,4-tetrahydro-b-carbolin-9-yl]-naphthalen-1-yl-methanone] was less than 3 µM. The value for `O=C(Nc1cc(-c2ccccc2)cc(COc2ccccc2C(F)(F)F)c1N1CCNCC1)c1nccc2ccccc12` [Compound 177, Isoquinoline-1-carboxylic acid [4-piperazin-1-yl-5-(2-trifluoromethyl-phenoxymethyl)-biphenyl-3-yl]-amide] was less than 3 µM; that for `O=C(c1ccc2ccccc2c1)n1c2c(c3cc(OCc4ccccc4OC(F)F)ccc31)CCNC2` [Compound 530, [6-(2-Difluoromethoxy-benzyloxy)-1,2,3,4-tetrahydro-b-carbolin-9-yl]-naphthalen-2-yl-methanone] was less than 3 µM.
